According to US10231452B2, “Thiopicolinamide compounds with fungicidal activity” (Dow AgroSciences LLC, priority 2016, dated 2019):
Where two headings read alike, the source gives them in different places.

What was measured:
Zymoseptoria tritici = experiment: Fungicidal activity: leaf blotch of wheat (SEPTTR), disease control on wheat seedlings; type: in vivo; conditions: wheat (Yuma); for pest or weed control at 100 ppm: high volume application; for pest or weed control at 121.5 g/ha: low volume application, 121.5 g/H
Protocol: Evaluation of Fungicidal Activity: Leaf Blotch of Wheat (Zymoseptoria Tritici; Bayer Code […]) Technical grades of materials were dissolved in acetone, which were then mixed with nine volumes of water (H2O) containing 110 ppm Triton X-100. The fungicide solutions were applied onto wheat seedlings using an automated booth sprayer to run-off. All sprayed plants were allowed to air dry prior to further handling. All fungicides were evaluated using the aforementioned method for their activity vs. all target diseases, unless stated otherwise. Wheat leaf blotch and brown rust activity were also evaluated using track spray applications, in which case the fungicides were formulated as EC formulations, containing 0.1% Trycol 5941 in the spray solutions. Wheat plants (variety Yuma) were grown from seed in a greenhouse in 50% mineral soil/50% soil-less Metro mix until the first leaf was fully emerged, with 7-10 seedlings per pot. These plants were inoculated with an aqueous spore suspension of Zymoseptoria tritici either prior to or after fungicide treatments. After inoculation the plants were kept in 100% relative humidity (one day in a dark dew chamber followed by two to three days in a lighted dew chamber at 20° C.) to permit spores to germinate and infect the leaf. The plants were then transferred to a greenhouse set at 20° C. for disease to develop. When disease symptoms were fully expressed on the 1st leaves of untreated plants, infection levels were assessed on a scale of 0 to 100 percent disease severity. Percent disease control was calculated using the ratio of disease severity on treated plants relative to untreated plants.

Puccinia triticina = experiment: Fungicidal activity: wheat brown rust (PUCCRT), disease control on wheat seedlings; type: in vivo; conditions: wheat (Yuma); for pest or weed control at 100 ppm: high volume application; for pest or weed control at 121.5 g/ha: low volume application, 121.5 g/H
Protocol: Technical grades of materials were dissolved in acetone, which were then mixed with nine volumes of water (H2O) containing 110 ppm Triton X-100. The fungicide solutions were applied onto wheat seedlings using an automated booth sprayer to run-off. All sprayed plants were allowed to air dry prior to further handling. All fungicides were evaluated using the aforementioned method for their activity vs. all target diseases, unless stated otherwise. Wheat leaf blotch and brown rust activity were also evaluated using track spray applications, in which case the fungicides were formulated as EC formulations, containing 0.1% Trycol 5941 in the spray solutions.
Evaluation of Fungicidal Activity: Wheat Brown Rust (Puccinia Triticina; Synonym: Puccinia recondita f. Sp. Tritici; Bayer Code PUCCRT)
Wheat plants (variety Yuma) were grown from seed in a greenhouse in 50% mineral soil/50% soil-less Metro mix until the first leaf was fully emerged, with 7-10 seedlings per pot. These plants were inoculated with an aqueous spore suspension of Puccinia triticina either prior to or after fungicide treatments. After inoculation the plants were kept in a dark dew room at 22° C. with 100% relative humidity overnight to permit spores to germinate and infect the leaf. The plants were then transferred to a greenhouse set at 24° C. for disease to develop. Fungicide formulation, application and disease assessment followed the procedures as described in the Example A. The results of the evaluation are shown below in Table 4.

Phakopsora pachyrhizi = experiment: Fungicidal activity: Asian soybean rust (PHAKPA), disease control on soybean seedlings; type: in vivo; conditions: soybean (Williams 82)
Protocol: Evaluation of Fungicidal Activity: Asian Soybean Rust (Phakopsora pachyrhizi; Bayer Code PHAKPA)
Technical grades of materials were dissolved in acetone, which were then mixed with nine volumes of H2O containing 0.011% Tween 20. The fungicide solutions were applied onto soybean seedlings using an automated booth sprayer to run-off. All sprayed plants were allowed to air dry prior to further handling.
Soybean plants (variety Williams 82) were grown in soil-less Metro mix, with one plant per pot. Two weeks old seedlings were used for testing. Plants were inoculated either 3 days prior to or 1 day after fungicide treatments. Plants were incubated for 24 h in a dark dew room at 22° C. and 100% relative humidity then transferred to a growth room at 23° C. for disease to develop. Disease severity was assessed on the sprayed leaves.

[1] = 24 h, 1 day protectant, read-out: SEPTTR 1DP disease control, HV activity at 100 ppm
[2] = 72 h, 3 day curative, read-out: SEPTTR 3DC disease control, HV activity at 100 ppm
[3] = 24 h, 1 day protectant, read-out: PUCCRT 1DP disease control, HV activity at 100 ppm
[4] = 72 h, 3 day curative, read-out: PUCCRT 3DC disease control, HV activity at 100 ppm
[5] = 24 h, 1 day protectant, read-out: SEPTTR 1DP disease control, LV activity at 121.5 g/H
[6] = 72 h, 3 day curative, read-out: SEPTTR 3DC disease control, LV activity at 121.5 g/H
[7] = 24 h, 1 day protectant, read-out: PUCCRT 1DP disease control, LV activity at 121.5 g/H
[8] = 72 h, 3 day curative, read-out: PUCCRT 3DC disease control, LV activity at 121.5 g/H

melting point | SMILES | pest or weed control at 100 ppm (Zymoseptoria tritici; [1]) | pest or weed control at 100 ppm (Zymoseptoria tritici; [2]) | pest or weed control at 100 ppm (Puccinia triticina; [3]) | pest or weed control at 100 ppm (Puccinia triticina; [4]) | pest or weed control at 121.5 g/ha (Zymoseptoria tritici; [5]) | pest or weed control at 121.5 g/ha (Zymoseptoria tritici; [6]) | pest or weed control at 121.5 g/ha (Puccinia triticina; [7]) | pest or weed control at 121.5 g/ha (Puccinia triticina; [8]) | pest or weed control at 25 ppm (Phakopsora pachyrhizi; 24 h, 1 day protectant, read-out: PHAKPA 1DP disease control at 25 ppm) | pest or weed control at 25 ppm (Phakopsora pachyrhizi; 72 h, 3 day curative, read-out: PHAKPA 3DC disease control at 25 ppm)
60 to 72 °C | COc1cc(C)ccc1C(c1ccc(F)cc1OC)[C@H](C)OC(=O)[C@H](C)NC(=S)c1nccc(OC)c1O (some centres unmarked) [Compound 29] | > 80% | > 80% | > 80% | > 80% | – | – | – | – | – | –
49 to 57 °C | COc1ccnc(C(=S)N[C@@H](C)C(=O)O[C@@H](C)[C@H](Oc2ccc(C)cc2)C2CCCC2)c1O [Compound 38] | > 80% | ≤ 80% | > 80% | > 80% | – | – | – | – | – | –
– | CCCCC[C@@H](OC(=O)[C@H](C)NC(=S)c1nccc(OC)c1OC(C)=O)[C@H](C)Oc1ccccc1 [Compound 41] | – | – | – | – | > 80% | > 80% | > 80% | > 80% | – | –
– | COc1cc(C)ccc1C(c1ccc(F)cc1OC)[C@H](C)OC(=O)[C@H](C)NC(=S)c1nccc(OC)c1OC(C)=O (some centres unmarked) [Compound 65] | – | – | – | – | > 80% | > 80% | > 80% | > 80% | > 80% | ≤ 80%
